Experimental data published in PubChem BioAssay (NCI).
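Tested at 5 concentrations; 48 h exposure; 96-well plates; endpoints linearly interpolated, else capped at highest concentration. TGI is the concentration that stops growth completely.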

Legend:
Assay in all cases: NCI tumour cell line growth inhibition, 48 h
SK-OV-3 ovarian = system: SK-OV-3 ovarian
SN12C renal = system: SN12C renal
A549 NSCLC = system: A549 NSCLC
EKVX NSCLC = system: EKVX NSCLC
UACC-257 melanoma = system: UACC-257 melanoma
MALME-3M melanoma = system: MALME-3M melanoma
NCI-H226 lung = system: NCI-H226 lung
MDA-MB-435 = system: MDA-MB-435
BT-549 breast = system: BT-549 breast
SK-MEL-5 melanoma = system: SK-MEL-5 melanoma
HOP-62 NSCLC = system: HOP-62 NSCLC
SR leukemia = system: SR leukemia
SK-MEL-28 melanoma = system: SK-MEL-28 melanoma
U251 CNS = system: U251 CNS
OVCAR-8 ovarian = system: OVCAR-8 ovarian
HT29 colon = system: HT29 colon
SF-295 CNS = system: SF-295 CNS
COLO 205 colon = system: COLO 205 colon
CCRF-CEM leukemia = system: CCRF-CEM leukemia
OVCAR-5 ovarian = system: OVCAR-5 ovarian
HCT-15 colon = system: HCT-15 colon
IGROV1 ovarian = system: IGROV1 ovarian
RXF 393 renal = system: RXF 393 renal
M14 melanoma = system: M14 melanoma
SNB-19 CNS = system: SNB-19 CNS
T-47D breast = system: T-47D breast
MDA-MB-231 breast = system: MDA-MB-231 breast
UACC-62 melanoma = system: UACC-62 melanoma
MDA-N = system: MDA-N
NCI-H460 lung = system: NCI-H460 lung
RPMI-8226 leukemia = system: RPMI-8226 leukemia
OVCAR-3 ovarian = system: OVCAR-3 ovarian
OVCAR-4 ovarian = system: OVCAR-4 ovarian
LOX IMVI melanoma = system: LOX IMVI melanoma
K-562 leukemia = system: K-562 leukemia
A498 renal = system: A498 renal
HOP-92 NSCLC = system: HOP-92 NSCLC
786-0 renal = system: 786-0 renal
NCI-H522 lung = system: NCI-H522 lung
TK-10 renal = system: TK-10 renal
HL-60(TB) leukemia = system: HL-60(TB) leukemia
PC-3 prostate = system: PC-3 prostate
DU-145 prostate = system: DU-145 prostate
SW-620 colon = system: SW-620 colon
SNB-75 CNS = system: SNB-75 CNS
HCT-116 colon = system: HCT-116 colon
SK-MEL-2 melanoma = system: SK-MEL-2 melanoma
NCI/ADR-RES ovarian = system: NCI/ADR-RES ovarian
MOLT-4 leukemia = system: MOLT-4 leukemia
HCC-2998 colon = system: HCC-2998 colon
CAKI-1 renal = system: CAKI-1 renal
NCI-H23 lung = system: NCI-H23 lung
KM12 colon = system: KM12 colon
SF-539 CNS = system: SF-539 CNS
ACHN renal = system: ACHN renal
HS 578T breast = system: HS 578T breast
UO-31 renal = system: UO-31 renal
SF-268 CNS = system: SF-268 CNS
MCF7 breast = system: MCF7 breast

C[N+]12CCCCC1C(COc1cccc3cccnc13)CCC2 (configuration not stated)
TGI (SK-OV-3 ovarian): > 100 µM | TGI (SN12C renal): > 100 µM | TGI (A549 NSCLC): > 100 µM | TGI (EKVX NSCLC): > 100 µM | TGI (UACC-257 melanoma): > 100 µM | TGI (MALME-3M melanoma): > 100 µM | TGI (NCI-H226 lung): > 100 µM | TGI (MDA-MB-435): > 100 µM | TGI (BT-549 breast): > 100 µM | TGI (SK-MEL-5 melanoma): > 100 µM | TGI (HOP-62 NSCLC): > 100 µM | TGI (SR leukemia): > 100 µM | TGI (SK-MEL-28 melanoma): > 100 µM | TGI (U251 CNS): > 100 µM | TGI (OVCAR-8 ovarian): > 100 µM | TGI (HT29 colon): > 100 µM | TGI (SF-295 CNS): > 100 µM | TGI (COLO 205 colon): > 100 µM | TGI (CCRF-CEM leukemia): > 100 µM | TGI (OVCAR-5 ovarian): > 100 µM | TGI (HCT-15 colon): > 100 µM | TGI (IGROV1 ovarian): > 100 µM | TGI (RXF 393 renal): > 100 µM | TGI (M14 melanoma): > 100 µM | TGI (SNB-19 CNS): > 100 µM | TGI (T-47D breast): > 100 µM | TGI (MDA-MB-231 breast): > 100 µM | TGI (UACC-62 melanoma): > 100 µM | TGI (MDA-N): > 100 µM | TGI (NCI-H460 lung): > 100 µM | TGI (RPMI-8226 leukemia): > 100 µM | TGI (OVCAR-3 ovarian): > 100 µM | TGI (OVCAR-4 ovarian): > 100 µM | TGI (LOX IMVI melanoma): > 100 µM | TGI (K-562 leukemia): > 100 µM | TGI (A498 renal): > 100 µM | TGI (HOP-92 NSCLC): > 100 µM | TGI (786-0 renal): > 100 µM | TGI (NCI-H522 lung): > 100 µM | TGI (TK-10 renal): > 100 µM | TGI (HL-60(TB) leukemia): > 100 µM | TGI (PC-3 prostate): > 100 µM | TGI (DU-145 prostate): > 100 µM | TGI (SW-620 colon): > 100 µM | TGI (SNB-75 CNS): > 100 µM | TGI (HCT-116 colon): > 100 µM | TGI (SK-MEL-2 melanoma): > 100 µM | TGI (NCI/ADR-RES ovarian): > 100 µM | TGI (MOLT-4 leukemia): > 100 µM | TGI (HCC-2998 colon): > 100 µM | TGI (CAKI-1 renal): > 100 µM | TGI (NCI-H23 lung): > 100 µM | TGI (KM12 colon): > 100 µM | TGI (SF-539 CNS): > 100 µM | TGI (ACHN renal): > 100 µM | TGI (HS 578T breast): > 100 µM | TGI (UO-31 renal): > 100 µM | TGI (SF-268 CNS): > 100 µM | TGI (MCF7 breast): > 100 µM

O=C1CSC(c2ccccc2)N1c1nc2cc3sc(N4C(=O)CSC4c4ccccc4)nc3cc2s1 (configuration not stated)
TGI (SK-OV-3 ovarian): > 100 µM | TGI (SN12C renal): > 100 µM | TGI (A549 NSCLC): > 100 µM | TGI (EKVX NSCLC): > 100 µM | TGI (UACC-257 melanoma): > 100 µM | TGI (MALME-3M melanoma): > 100 µM | TGI (NCI-H226 lung): > 96.6 µM | TGI (MDA-MB-435): > 100 µM | TGI (BT-549 breast): > 100 µM | TGI (SK-MEL-5 melanoma): > 100 µM | TGI (HOP-62 NSCLC): > 100 µM | TGI (SR leukemia): > 100 µM | TGI (SK-MEL-28 melanoma): > 100 µM | TGI (U251 CNS): > 100 µM | TGI (OVCAR-8 ovarian): > 100 µM | TGI (HT29 colon): > 100 µM | TGI (SF-295 CNS): > 100 µM | TGI (COLO 205 colon): > 26.9 µM | TGI (CCRF-CEM leukemia): > 84.1 µM | TGI (OVCAR-5 ovarian): > 100 µM | TGI (HCT-15 colon): > 100 µM | TGI (IGROV1 ovarian): > 100 µM | TGI (RXF 393 renal): > 100 µM | TGI (M14 melanoma): > 100 µM | TGI (SNB-19 CNS): > 100 µM | TGI (T-47D breast): > 100 µM | TGI (MDA-MB-231 breast): > 100 µM | TGI (UACC-62 melanoma): > 100 µM | TGI (MDA-N): > 100 µM | TGI (NCI-H460 lung): > 100 µM | TGI (RPMI-8226 leukemia): > 100 µM | TGI (OVCAR-3 ovarian): > 100 µM | TGI (OVCAR-4 ovarian): > 100 µM | TGI (LOX IMVI melanoma): > 100 µM | TGI (K-562 leukemia): > 100 µM | TGI (A498 renal): > 100 µM | TGI (HOP-92 NSCLC): > 100 µM | TGI (786-0 renal): > 100 µM | TGI (NCI-H522 lung): > 100 µM | TGI (TK-10 renal): > 100 µM | TGI (HL-60(TB) leukemia): > 100 µM | TGI (PC-3 prostate): > 100 µM | TGI (DU-145 prostate): > 100 µM | TGI (SW-620 colon): > 100 µM | TGI (SNB-75 CNS): > 92.3 µM | TGI (HCT-116 colon): > 100 µM | TGI (SK-MEL-2 melanoma): > 100 µM | TGI (NCI/ADR-RES ovarian): > 100 µM | TGI (MOLT-4 leukemia): > 100 µM | TGI (HCC-2998 colon): > 100 µM | TGI (CAKI-1 renal): > 100 µM | TGI (NCI-H23 lung): > 100 µM | TGI (KM12 colon): > 100 µM | TGI (SF-539 CNS): 15.6 µM | TGI (ACHN renal): > 100 µM | TGI (HS 578T breast): > 100 µM | TGI (UO-31 renal): > 100 µM | TGI (SF-268 CNS): > 100 µM | TGI (MCF7 breast): > 100 µM

COc1nn(Cc2ccccn2)c2ccc([N+](=O)[O-])cc12
TGI (SK-OV-3 ovarian): > 100 µM | TGI (SN12C renal): > 100 µM | TGI (A549 NSCLC): > 100 µM | TGI (EKVX NSCLC): > 100 µM | TGI (UACC-257 melanoma): > 100 µM | TGI (MALME-3M melanoma): > 100 µM | TGI (NCI-H226 lung): > 100 µM | TGI (MDA-MB-435): > 100 µM | TGI (BT-549 breast): > 100 µM | TGI (SK-MEL-5 melanoma): > 100 µM | TGI (HOP-62 NSCLC): > 100 µM | TGI (SR leukemia): 98.4 µM | TGI (SK-MEL-28 melanoma): > 100 µM | TGI (U251 CNS): > 100 µM | TGI (OVCAR-8 ovarian): > 100 µM | TGI (HT29 colon): > 100 µM | TGI (SF-295 CNS): > 100 µM | TGI (COLO 205 colon): > 100 µM | TGI (CCRF-CEM leukemia): > 100 µM | TGI (OVCAR-5 ovarian): > 100 µM | TGI (HCT-15 colon): > 100 µM | TGI (IGROV1 ovarian): > 100 µM | TGI (RXF 393 renal): > 100 µM | TGI (M14 melanoma): > 100 µM | TGI (SNB-19 CNS): > 100 µM | TGI (T-47D breast): > 100 µM | TGI (MDA-MB-231 breast): > 100 µM | TGI (UACC-62 melanoma): > 100 µM | TGI (MDA-N): 95.5 µM | TGI (NCI-H460 lung): > 100 µM | TGI (RPMI-8226 leukemia): > 100 µM | TGI (OVCAR-3 ovarian): > 100 µM | TGI (OVCAR-4 ovarian): > 100 µM | TGI (LOX IMVI melanoma): > 100 µM | TGI (K-562 leukemia): > 100 µM | TGI (A498 renal): > 100 µM | TGI (HOP-92 NSCLC): 84.2 µM | TGI (786-0 renal): > 100 µM | TGI (NCI-H522 lung): > 100 µM | TGI (TK-10 renal): > 100 µM | TGI (HL-60(TB) leukemia): 64.1 µM | TGI (PC-3 prostate): > 100 µM | TGI (DU-145 prostate): > 100 µM | TGI (SW-620 colon): > 100 µM | TGI (SNB-75 CNS): 93 µM | TGI (HCT-116 colon): > 100 µM | TGI (SK-MEL-2 melanoma): > 100 µM | TGI (NCI/ADR-RES ovarian): > 100 µM | TGI (MOLT-4 leukemia): > 100 µM | TGI (HCC-2998 colon): > 100 µM | TGI (CAKI-1 renal): > 100 µM | TGI (NCI-H23 lung): > 100 µM | TGI (KM12 colon): > 100 µM | TGI (SF-539 CNS): > 100 µM | TGI (ACHN renal): > 100 µM | TGI (HS 578T breast): 88 µM | TGI (UO-31 renal): > 100 µM | TGI (SF-268 CNS): > 100 µM | TGI (MCF7 breast): > 100 µM
